Assay results published in ChEMBL document CHEMBL1157286, “Schisandrene, a dibenzocyclooctadiene lignan from Schisandra chinensis: structure-antioxidant activity relationships of dibenzocyclooctadiene lignans” (J Nat Prod, 2006).
The source made the active and inactive calls. The calls are words filed in the database; no cut-off is given here.

Legend:
[1] = tested on: HL-60; assay: Cytotoxicity against human HL60 cells by XTT assay; type: functional, cell-based
[2] = tested on: HL-60; assay: Antioxidant activity in human HL60 cells assessed as inhibition of TPA-stimulated hydrogen peroxide induced DCFH-DA oxidation by fluorometric microplate assay; type: functional, cell-based
[3] = tested on: LLC-PK1; assay: Cytotoxicity against pig LLC-PK1 cells upto 48 uM; type: cell-based, Sus scrofa
[4] = tested on: Vero; assay: Cytotoxicity against african green monkey Vero cells upto 48 uM; type: cell-based; settings: chlorocebus sabaeus

Compound	Activity [1]	Activity [2]	Activity [3]	Activity [4]	IC50 [1] [µM]	IC50 [2] [µM]
COc1cc2c(c(OC)c1OC)-c1c(cc3c(c1OC)OCO3)C[C@H](C)[C@](C)(O)C2	inactive	inactive	–	–	–	–
C/C=C(/C)C(=O)Oc1c(OC)c(OC)cc2c1-c1c(cc(OC)c(OC)c1OC)CC(C)(O)C(C)C2 (centres undefined) [ANGELOYLGOMISIN]	–	–	Not Active	Not Active	45.3	81.5
O=C1O[C@H]([C@@H](O)CO)C(O)=C1O [ASCORBIC ACID]	inactive	–	–	–	–	10.2
COc1cc2c(c(OC)c1OC)-c1c(cc(OC)c(OC)c1OC(=O)c1ccccc1)CC(C)C(C)(O)C2 (centres undefined) [BENZOYLGOMISIN H]	–	inactive	Not Active	Not Active	41.2	–
COc1cc2c(c(OC)c1OC)-c1c(cc3c(c1OC)OCO3)C[C@H](C)[C@@](C)(O)C2 [GOMISIN A]	–	–	Not Active	Not Active	–	–
C/C=C(/C)C(=O)O[C@H]1c2cc(OC)c(OC)c(OC)c2-c2c(cc3c(c2OC)OCO3)C[C@H](C)[C@]1(C)O [GOMISIN B]	–	–	Not Active	Not Active	–	–
C/C=C(\C)C(=O)O[C@H]1c2cc(OC)c(OC)c(OC)c2-c2c(cc3c(c2OC)OCO3)C[C@H](C)[C@]1(C)O [GOMISIN B]	inactive	–	–	–	–	> 116
COc1cc2c(c(OC)c1OC)-c1c(cc3c(c1OC)OCO3)[C@H](OC(=O)c1ccccc1)[C@@](C)(O)[C@@H](C)C2 [GOMISIN G]	–	–	Not Active	Not Active	48.3	38.2
COc1cc2c(c(O)c1OC)-c1c(cc(OC)c(OC)c1OC)CC(C)C(C)C2 (centres undefined) [GOMISIN K3]	–	–	Not Active	Not Active	56.2	> 155
CC(Cc1ccc(O)c(O)c1)C(C)Cc1ccc(O)c(O)c1 (centres undefined) [NORDIHYDROGUAIARETIC ACID]	–	–	–	–	12.2	2.3
C=C1[C@H](C)Cc2cc3c(c(OC)c2-c2c(cc4c(c2OC)OCO4)[C@H]1OC(=O)c1ccccc1)OCO3 [SCHISANDRENE]	–	–	Not Active	Not Active	55.8	2.8
COc1cc2c(c(OC)c1OC)-c1c(cc(OC)c(OC)c1OC)C[C@H](C)[C@H](C)C2 [SCHISANDRIN A]	inactive	inactive	Not Active	Not Active	–	–
COc1c2c(cc3c1-c1c(cc4c(c1OC)OCO4)C[C@H](C)[C@H](C)C3)OCO2 [SCHISANDRIN C]	–	inactive	Not Active	Not Active	41.2	–
COc1cc2c(c(OC)c1OC)-c1c(cc(OC)c(OC)c1OC)C[C@](C)(O)[C@@H](C)C2 [SCHIZANDRIN]	inactive	inactive	Not Active	Not Active	–	–
C/C=C(\C)C(=O)Oc1c(OC)c(OC)cc2c1-c1c(cc(OC)c(OC)c1OC)C[C@](C)(O)[C@@H](C)C2 [TIGLOYLGOMISIN H]	–	–	Not Active	Not Active	44.3	> 125
Cc1c(C)c2c(c(C)c1O)CCC(C)(C(=O)O)O2 (centres undefined) [TROLOX]	inactive	–	–	–	–	3.6
COc1cc2c(c(OC)c1OC)-c1c(cc3c(c1OC)OCO3)C[C@H](C)[C@H](C)C2 [WUWEIZISU B]	–	inactive	Not Active	Not Active	52.4	–
